Reference: patent US4500520A, “Antiinflammatory and/or analgesic silylfurans” (E. I. Du Pont de Nemours and Company, priority 1983, dated 1985)
Like-named read-outs stand apart in the source and are kept apart here.

Experiments:
[1] = test system: adjuvant-induced arthritis (paw volume, uninjected left hind paw); assay: Established adjuvant-induced arthritis in rats; assay type: in vivo, rat (male Charles River Lewis); details: for ED50: Rattus norvegicus, read-out: Adjuvant Arthritis ED50; for Adjuvant Arthritis, percent reduction in paw volume at the indicated dose: at 27 mg/kg
[2] = test system: phenylquinone-induced writhing; assay: Phenylquinone writhing test; assay type: in vivo, mouse (female white); details: Mus musculus, read-out: Phenylquinone Writhing (PQW) ED50
Description: PHENYLQUINONE WRITHING TEST
A standard procedure for detecting and comparing the analgesic activity of compounds in this series for which there is a good correlation with human efficacy is the standard phenylquinone writhing test modified from Siegmund, et al., Proc. Soc. Exp. Biol. Med., 95, 729 (1957). A test compound suspended in 1% methylcellulose was given orally to fasted (17-21 hours) female white mice, 5-20 animals per double blind test. Aqueous (0.01% phenyl-p-benzoquinone) phenylquinone, 0.20 ml per mouse, was injected intraperitoneally 6 minutes before observations were begun. […] The effective analgesic dose for 50% of the mice (ED50) was calculated by the moving average method of Thompson, W. R., Bact. Rev., 11, 115-145 (1947); the time of peak activity was determined for many of the compounds. Data for some of the compounds are summarized in Table II together with data for some standard analgetic-antiinflammatory drugs.

[3] = oral, 7 daily doses, rats, effective dose for 50% decrease from control paw volume, read from dose-response line by inspection
[4] = oral, mice, effective analgesic dose for 50% of the mice, moving average method

| Structure (SMILES) | ED50 ([1]; po) [mg/kg] | ED50 ([2]; po) [mg/kg] | Adjuvant Arthritis, percent reduction in paw volume at the indicated dose ([1]; oral, 7 daily doses, rats) [%] | ED50 [1, 3] [mg/kg] | ED50 [2, 4] [mg/kg] |
| --- | --- | --- | --- | --- | --- |
| COc1ccc(-c2cc([Si](C)(C)C)oc2-c2ccc(OC)cc2)cc1 [Example 2, 4,5-bis(4-Methoxyphenyl)-2-trimethylsilylfuran] | 2.5 | 2.3 | – | – | – |
| C[Si](C)(C)c1cc(-c2ccccc2)c(-c2ccccc2)o1 [Example 3, 4,5-Diphenyl-2-trimethylsilylfuran] | – | 94 | 24 | – | – |
| CCCCC1C(=O)N(c2ccccc2)N(c2ccccc2)C1=O [Phenylbutazone, reference compound] | – | – | – | 10 | 80 |
| COc1ccc2c(c1)c(CC(=O)O)c(C)n2C(=O)c1ccc(Cl)cc1 [Indomethacin, reference compound] | 0.3 | 0.35 | – | – | – |
| CC(C)Cc1ccc(C(C)C(=O)O)cc1 (stereo not drawn) [Ibuprofen, reference compound] | – | – | – | 100 | 10 |
| CSc1ccc(-c2cc([Si](C)(C)C)oc2-c2ccc(F)cc2)cc1 [Example 4, 5-(4-Fluorophenyl)-4-(4-methylthiophenyl)-2-trimethylsilylfuran] | > 27 | > 135 | – | – | – |
| CC(=O)Oc1ccccc1C(=O)O [Aspirin, reference compound] | 305 | 135 | – | – | – |
| C[Si](C)(C)c1cc(-c2ccc(F)cc2)c(-c2ccc(F)cc2)o1 [Example 1, 4,5-bis(4-Fluorophenyl)-2-trimethylsilylfuran] | – | 39 | 32 | – | – |
| Cc1ccc(-c2cc([Si](C)(C)C)oc2-c2ccc(Cl)cc2)cc1 [Example 5, 5-(4-Chlorophenyl)-4-(4-methylphenyl)-2-trimethylsilylfuran] | – | > 135 | 15 | – | – |
